Assays:
Assay in all cases: relative viability (nuclei count vs DMSO), 5 days (fraction); higher = more cells survive
[1] = compound: COC1=CC=C(C=C1)CN2C=CC3=C2C=C(C=C3)C(=O)NO + O=C(CCCCCCC(=O)Nc1ccccc1)NO [Vorinostat] (partner 1 µM)
How it was run: (§1)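 Medians of duplicate plates are given as relative viability. That measure is the nuclei count in treated wells divided by the count in vehicle wells. Counts were taken on 4× images of lung cancer cell lines in 1536-well plates, 5 days after pin-tool dosing the day after seeding with one drug alone or a fixed anchor-drug dose plus five library-drug doses (not always all listed) in √10 steps.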

Veliparib + Luminespib = compound: C[C@]1(c2nc3c(C(N)=O)cccc3[nH]2)CCCN1 [Veliparib] + CCNC(=O)c1noc(-c2cc(C(C)C)c(O)cc2O)c1-c1ccc(CN2CCOCC2)cc1 [Luminespib] (partner 0.01 µM)
How it was run: as §1

Veliparib + Tozasertib = compound: C[C@]1(c2nc3c(C(N)=O)cccc3[nH]2)CCCN1 [Veliparib] + Cc1cc(Nc2cc(N3CCN(C)CC3)nc(Sc3ccc(NC(=O)C4CC4)cc3)n2)n[nH]1 [Tozasertib] (partner 0.1 µM)
How it was run: as §1

Veliparib + Olaparib = compound: C[C@]1(c2nc3c(C(N)=O)cccc3[nH]2)CCCN1 [Veliparib] + O=C(c1cc(Cc2n[nH]c(=O)c3ccccc23)ccc1F)N1CCN(C(=O)C2CC2)CC1 [Olaparib] (partner 8 µM)
How it was run: as §1

| Cell Line | relative viability ([1]; first compound 0.08 µM) | relative viability ([1]; first compound 0.253 µM) | relative viability ([1]; first compound 0.8 µM) | relative viability ([1]; first compound 2.53 µM) | relative viability ([1]; first compound 8 µM) | relative viability (Veliparib + Luminespib; first compound 0.02 µM) | relative viability (Veliparib + Luminespib; first compound 0.06325 µM) | relative viability (Veliparib + Luminespib; first compound 0.2 µM) | relative viability (Veliparib + Luminespib; first compound 0.6325 µM) | relative viability (Veliparib + Luminespib; first compound 2 µM) | relative viability (Veliparib + Tozasertib; first compound 0.02 µM) | relative viability (Veliparib + Tozasertib; first compound 0.06325 µM) | relative viability (Veliparib + Tozasertib; first compound 0.2 µM) | relative viability (Veliparib + Tozasertib; first compound 0.6325 µM) | relative viability (Veliparib + Tozasertib; first compound 2 µM) | relative viability (Veliparib + Olaparib; first compound 0.02 µM) | relative viability (Veliparib + Olaparib; first compound 0.06325 µM) | relative viability (Veliparib + Olaparib; first compound 0.2 µM) | relative viability (Veliparib + Olaparib; first compound 0.6325 µM) | relative viability (Veliparib + Olaparib; first compound 2 µM) |
| --- | --- | --- | --- | --- | --- | --- | --- | --- | --- | --- | --- | --- | --- | --- | --- | --- | --- | --- | --- | --- |
| NCI-H2342 | 0.591 | 0.738 | 0.694 | 0.701 | 0.788 | 0.687 | 0.729 | 0.594 | 0.972 | 0.666 | 0.498 | 0.573 | 0.421 | 0.504 | 0.508 | 0.383 | 0.461 | 0.469 | 0.41 | 0.474 |
| HOP-62 | 0.39 | 0.666 | 0.528 | 0.748 | 0.531 | 0.831 | 0.858 | 0.783 | 0.669 | 0.836 | 0.327 | 0.382 | 0.419 | 0.328 | 0.39 | – | 0.347 | 0.364 | 0.342 | 0.383 |
| BEN | 0.566 | 0.566 | 0.591 | 0.543 | 0.548 | 0.161 | 0.188 | 0.308 | 0.557 | 0.148 | 0.456 | 0.558 | 0.524 | 0.477 | 0.481 | 0.799 | 1.15 | 1.12 | 0.92 | 1 |
| NCI-H647 | 0.457 | 0.738 | 0.802 | 0.702 | 0.515 | 0.249 | 0.142 | 0.195 | 0.12 | 0.359 | 0.28 | 0.346 | 0.263 | 0.357 | 0.254 | 0.657 | 0.465 | 0.659 | 0.505 | 0.572 |
| NCI-H2085 | 0.835 | 0.828 | 0.828 | 0.828 | 0.807 | – | 0.438 | 0.426 | 0.273 | 0.447 | 0.737 | 0.888 | 0.75 | 0.738 | 0.849 | 0.789 | 0.776 | 0.779 | 0.708 | 0.734 |
| NCI-H2347 | 0.502 | 0.611 | 0.736 | 0.796 | 0.559 | 0.484 | 0.54 | 0.649 | 0.547 | 0.427 | 0.55 | 0.501 | 0.492 | 0.553 | 0.541 | 0.587 | 0.549 | 0.597 | 0.586 | 0.576 |
| NCI-H2228 | 0.496 | 0.869 | 0.639 | 0.431 | 0.826 | 0.141 | 0.0988 | 0.145 | 0.123 | 0.154 | 0.31 | 0.318 | 0.352 | 0.176 | 0.353 | 0.807 | 0.58 | 0.913 | 0.541 | 0.754 |
| NCI-H2009 | 0.498 | 0.751 | 0.722 | 0.75 | 0.708 | 1.03 | 0.96 | 1.05 | 1.05 | 1.13 | 0.798 | 0.753 | 0.741 | 0.745 | 0.854 | 0.672 | 0.652 | 0.682 | 0.672 | 0.763 |
| IA-LM | 0.801 | – | 0.971 | 1.05 | 0.961 | – | – | – | – | – | – | – | – | – | – | 0.896 | 0.702 | 0.743 | 0.678 | 0.74 |
| NCI-H358 | – | 0.721 | 0.703 | 0.606 | 0.528 | 0.308 | 0.975 | 0.248 | 0.246 | 0.548 | 0.121 | 0.107 | 0.106 | 0.106 | 0.102 | 0.673 | 0.739 | 0.662 | 0.564 | 0.597 |
| SK-LU-1 | 0.527 | 0.753 | 0.771 | 0.718 | 0.691 | 0.227 | 0.195 | 0.232 | 0.199 | 0.22 | 0.366 | 0.32 | 0.37 | 0.344 | 0.343 | 0.492 | 0.415 | 0.491 | 0.364 | 0.424 |
| LCLC-97TM1 | – | 0.659 | 0.772 | 0.557 | 0.438 | 0.729 | 0.729 | 0.884 | 0.671 | 0.678 | 0.231 | 0.237 | 0.204 | 0.197 | 0.253 | 0.433 | 0.475 | 0.439 | 0.233 | 0.527 |
| NCI-H322M | – | – | 0.866 | 0.888 | 0.845 | – | 0.814 | 0.915 | 0.855 | 0.848 | – | 0.425 | 0.416 | 0.499 | 0.422 | – | 0.737 | 0.786 | 0.74 | 0.715 |
| NCI-H1623 | – | – | – | – | – | – | 0.467 | 0.596 | 0.434 | 0.409 | – | 0.439 | 0.428 | 0.461 | 0.444 | – | – | – | – | – |
| EMC-BAC-2 | 0.257 | – | 0.568 | 0.429 | 0.36 | 1.24 | 1.09 | 1.28 | 1.12 | 1.21 | 0.306 | 0.29 | 0.339 | 0.286 | 0.286 | 0.539 | 0.427 | 0.483 | 0.455 | 0.495 |
| NCI-H1355 | 0.223 | 0.695 | 0.65 | 0.625 | 0.589 | – | 0.543 | 0.664 | 0.658 | 0.62 | – | 0.534 | 0.559 | 0.507 | 0.539 | 0.656 | 0.69 | 0.764 | 0.678 | 0.78 |
| Calu-6 | – | – | – | – | – | – | – | – | – | – | – | – | – | – | – | 0.646 | 0.565 | 0.606 | 0.491 | 0.664 |
| NCI-H661 | – | 0.807 | 0.717 | 0.747 | 0.639 | 0.863 | 0.931 | 0.839 | 0.785 | 0.934 | 0.349 | 0.363 | 0.336 | 0.329 | 0.388 | 0.749 | 0.824 | 0.712 | 0.692 | 0.741 |
| NCI-H1975 | 0.676 | 0.779 | 0.752 | 0.74 | 0.701 | 0.118 | 0.233 | 0.142 | 0.31 | 0.18 | 0.932 | 0.729 | 0.775 | 0.699 | 0.723 | 0.77 | 0.745 | 0.788 | 0.748 | 0.776 |

From the supplement of paper PMC10307832
